Results published in patent US11999697B2, “Methods and compositions for inhibition of dihydroorotate dehydrogenase” (OHIO STATE INNOVATION FOUNDATION, priority 2018, dated 2024).

Legend:
[1] = tested on: p53 signaling pathway in MOLM13, MV4-11, OCI-AML3; assay: Immunoblots for MDM2, p53, p-γH2AX, p21 in AML cell lines; assay type: cell-based; settings: 1 μM, 24 hours
Protocol: FIGS. 6A-6F show representative data and analysis for the effect of a representative disclosed compound, Cpd3, on the inhibition of MDM2. FIGS. 6A-6C show representative immunoblots for cells following vehicle treatment, treatment with a representative disclosed compound, Cpd3, or treatment with a reference compound, brequinar (indicated as “BQR” in the figures) using methods as described herein above. Briefly, AML cell lines were treated with vehicle, 1 μM Cpd3 or 1 μM BQR for 24 hours. Lysates were prepared and immunoblots were performed for MDM2, p53, p-γH2AX, p21 and GAPDH used as loading controls. […] That is, Cpd3 promotes a p53 response evident by both upregulation of the downstream target p21, with compensatory induction of MDM2. […] These preliminary data validate that Cpd3 is a potent inhibitor of DHODH in AML, and further preclinical development of Cpd3 is warranted.

[2] = Pharmacokinetic study, single dose by IV, IP, PO; assay type: in vivo, wild type B6 mice; settings: 10 mg/kg single dose; for AUC(0-t) / Tmax / bioavailability / half-life: B6, mouse, plasma; for Cmax: B6, mouse plasma
Excerpt: LC-MS/MS Assay Materials: Acetonitrile and methanol were LC-MS grade (Fisher Scientific (Fair Lawn, N.J., USA). Other chemicals were as follows: formic Acid (98%, v/v in water; Fisher Scientific, Fair Lawn, N.J., USA); ammonium acetate (Sigma Aldrich Inc.); water: DDH2O obtained from a Millipore water system; and brequinar was obtained from Sigma. (>99% purity). Solvent A: 0.1% formic acid in water. Solvent B: 0.1% Formic Acid in methanol and acetonitrile. Internal Standard (“IS”) precipitation solution was 150 ng/ml internal standards in acetonitrile: water (3:1, v/v).
Sample preparation: To 10 μL plasma sample was added 100 μL of working IS solution and 20 μL MeOH. Samples were then vortexed for 30 seconds, followed by centrifugation (Eppendorf 5415 R centrifuge) at 10,000 rpm for 8 minutes at 4° C. Supernatant of each sample was transferred into an autosampler vial and sealed with rubber/Teflon crimp cap. Sample volume that was injected onto HPLC was 5 μL. The calibrations samples were prepared at a test compound concentration of 1000, 500, 250, 100, 50, 10, 5 ng/mL in mouse plasma. The quality control samples were as follows: QC1=750 ng/mL, OC2=75 ng/mL, QC3=25 ng/mL, LLOQ=5 ng/mL.
HPLC Parameters: Accucore Vanquish C18 column (100×2.1 mm, dp=1.5 μm) used in a Vanquish UHPLC system, using a XBridge® BEH C18, 5-μm guard column. Mobile phase: gradient as provided below in Table 8 below. Column temperature: 40° C.±5° C.; Autosampler temperature: 10° C.±5° C. Flow rate: 0.4 ml/min. run time: 5.0 min.
The mass spectrometer used was a TSQ Quantiva (Thermo Fisher Scientific).
Briefly, wild type B6 mice were injected with a single dose (10 mg/kg) of Cpd3 by three different injection routes: oral gavage (PO), intravenous (IV) and intraperitoneal (IP) (N=4 per route). The vehicle used was 15% ethanol, 30% polyethylene glycol (PEG), and this same vehicle was used for each delivery route. Cpd3 was prepared as a 2.5 mg/mL concentration and delivered at 10 mg/kg (volume delivered in microliters was 4 times the weight of the mouse in grams). Blood plasma was sampled at time zero (0) and […] additional time points (15, 30 and 60 minutes, and 2, 6 and 24 hours), and the level of Cpd3 determined in mouse plasma by LC-MS/MS assay as described above. The data were used to calculate Cmax, Clast, Tmax, T1/2, AUC, and bioavailability for Cpd3 as appropriate for the route of administration.

## CCOc1ccc(-c2ccc(-c3cc(C(=O)O)c4cc(F)ccc4n3)cc2)cc1 [Cpd3, 2-(4′-ethoxy-[1,1′-biphenyl]-4-yl)-6-fluoroquinoline-4-carboxylic acid]
[1]
  induction of p53 signaling pathway and DNA damage: induces the p53 signaling pathway and DNA damage
[2]; IP
  AUC(0-t): 120 ± 228 µg·h/mL
  Tmax: 0.31 ± 0.13 h
  bioavailability: 89%
  half-life: 2.2 ± 0.11 h
  Cmax: 40200 ± 9300 ng/mL
  Clast: 16 ± 7 ng/mL
[2]; IV
  AUC(0-t): 134 ± 217 µg·h/mL
  half-life: 2.3 ± 0.19 h
  Cmax: 36400 ± 14300 ng/mL
  Clast: 22 ± 16 ng/mL
[2]; PO
  AUC(0-t): 425 ± 163 µg·h/mL
  Tmax: 0.5 h
  bioavailability: 32%
  half-life: 5.6 ± 1.95 h
  Cmax: 12200 ± 4300 ng/mL
  Clast: 310 ± 180 ng/mL
